Measurements as given in patent US20170065517A1, “COMPOSITIONS FOR […] AGENTS ACROSS THE ORAL MUCOSA AND METHODS OF USE THEREOF” (PARATEK PHARMACEUTICALS, INC., priority 2004, published 2017).

Experiment: Zolpidem membrane assay (lipid-coated dodecane membrane between donor and acceptor cell)
Format: in vitro ADME
Details: zolpidem tartrate solutions
Procedure: Topics Med. Chem., 1:277-351 (2001). This assay uses a lipid-coated membrane to predict lipid mucosal membrane penetration. The membrane apparatus consists of a dodecane membrane sandwiched between a donor and acceptor cell. The lipid-coated membrane is less porous then the mucous membrane of the oral cavity. Thus, the enhancement seen in the membrane assay is very likely to be magnified in vivo.
Membrane assays were performed using zolpidem tartrate solutions at a pH of 5.8, 6.8, and 7.8. The alkaline pH values of 7.8 were adjusted using freshly prepared 0.01 M sodium bicarbonate/sodium carbonate buffer solution. The acidic pH of 5.8 was achieved using a 0.01 M acetate buffer solution (a mixture of sodium acetate and acetic acid). The neutral pH of 6.8 was achieved by adding 0.01 M acetate solution to the sodium bicarbonate/sodium carbonate buffer solution. Permeation through the membrane was measured by determining the concentration of zolpidem in the acceptor cell and is expressed as Pc (effective permeability in centimeters per second).

Cc1ccc(-c2nc3ccc(C)cn3c2CC(=O)N(C)C)cc1 [zolpidem]
increase of effective permeability (Pc) (pH 7.8 relative to pH 5.8): 129%
increase of effective permeability (Pc) (pH 7.8 relative to pH 6.8): more than 53%
